Experimental data as given in BindingDB's records for doi:10.1016/S0960-894X(01)80746-0 (1993).

Test: Tested for inhibitory activity of compound against Phospholipase A2 (PLA2)

IC50 [µM] | Structure (SMILES)
5.3 | CCCCCCCCCCCC(=O)N[C@H](CCCC)COP(=O)([O-])OCC[N+](C)(C)C [(2-{[2-((S)-Dodecanoylamino)-hexyloxy]-hydroxy-phosphoryloxy}-ethyl)-trimethyl-ammonium]
31 | CCCCCCCCCCCC(=O)N1C(=O)OC[C@@H]1COP(=O)([O-])OCC[N+](C)(C)C [{2-[((R)-3-Dodecanoyl-2-oxo-oxazolidin-4-ylmethoxy)-hydroxy-phosphoryloxy]-ethyl}-trimethyl-ammonium]
